2 compounds from ChEMBL document CHEMBL1146421, “1,3-Dimethylisoguanine, a new purine from the marine sponge Amphimedon viridis” (1997) can be followed below.

Assay [1] can be described thus: Increase in contractions of electrically stimulated guinea pig longitudinal muscle/myenteric plexus at 0.1 mM. Format: functional, Cavia porcellus, Muscle tissue.
Another assay is filed under the species Cavia porcellus. Nature of the assay: Increase in contractions of electrically stimulated guinea pig longitudinal muscle/myenteric plexus. Format: functional, tissue-based. The following applies: Muscle tissue.
The nature of assay [2]: Increase in contractions of electrically stimulated guinea pig longitudinal muscle/myenteric plexus at 2 mM. Format: functional, Cavia porcellus, Muscle tissue.

Each structure is given as a SMILES string.

For `C/N=c1\ncn(C)c2c1[nH]c(=O)n2C` [CAISSARONE], the figures for the Activity (in assay [1]; in the assay filed under Cavia porcellus) were 80% and “Dose-dependent effect”, respectively.

`Cn1c(=N)c2nc[nH]c2n(C)c1=O` registered an Activity in assay [2] of 34%.
